Experimental findings from patent US6685617B1, “Inhibitors of α4β1 mediated cell adhesion” (Pharmacia & Upjohn Company, priority 1998, dated 2004) are described below.

T1 sequence (P13612 34-1032): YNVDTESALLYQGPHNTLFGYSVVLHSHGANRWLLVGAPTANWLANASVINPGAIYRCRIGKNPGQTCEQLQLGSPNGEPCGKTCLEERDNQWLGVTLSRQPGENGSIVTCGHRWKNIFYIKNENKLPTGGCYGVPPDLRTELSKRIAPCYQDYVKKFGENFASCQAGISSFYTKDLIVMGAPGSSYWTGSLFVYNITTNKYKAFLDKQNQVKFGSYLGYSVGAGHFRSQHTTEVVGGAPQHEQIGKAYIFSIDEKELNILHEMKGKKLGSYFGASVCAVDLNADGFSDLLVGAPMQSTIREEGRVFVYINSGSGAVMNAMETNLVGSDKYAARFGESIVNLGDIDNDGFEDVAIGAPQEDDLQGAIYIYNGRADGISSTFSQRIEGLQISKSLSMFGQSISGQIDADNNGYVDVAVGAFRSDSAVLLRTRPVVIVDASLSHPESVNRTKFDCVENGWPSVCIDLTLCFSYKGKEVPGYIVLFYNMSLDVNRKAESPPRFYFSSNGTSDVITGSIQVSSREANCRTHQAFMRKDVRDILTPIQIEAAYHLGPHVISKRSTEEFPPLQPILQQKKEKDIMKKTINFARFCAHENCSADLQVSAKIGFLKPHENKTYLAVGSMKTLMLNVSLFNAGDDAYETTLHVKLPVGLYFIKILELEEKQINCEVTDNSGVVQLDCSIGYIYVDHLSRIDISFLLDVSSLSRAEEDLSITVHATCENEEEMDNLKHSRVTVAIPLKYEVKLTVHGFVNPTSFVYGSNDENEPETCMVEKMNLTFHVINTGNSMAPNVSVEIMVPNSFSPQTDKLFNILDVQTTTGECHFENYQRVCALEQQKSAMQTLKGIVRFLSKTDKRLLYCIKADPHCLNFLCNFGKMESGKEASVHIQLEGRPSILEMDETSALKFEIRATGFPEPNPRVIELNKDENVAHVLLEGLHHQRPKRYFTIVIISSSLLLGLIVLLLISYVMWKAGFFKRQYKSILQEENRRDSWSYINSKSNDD
T1 sequence (P05556 21-798): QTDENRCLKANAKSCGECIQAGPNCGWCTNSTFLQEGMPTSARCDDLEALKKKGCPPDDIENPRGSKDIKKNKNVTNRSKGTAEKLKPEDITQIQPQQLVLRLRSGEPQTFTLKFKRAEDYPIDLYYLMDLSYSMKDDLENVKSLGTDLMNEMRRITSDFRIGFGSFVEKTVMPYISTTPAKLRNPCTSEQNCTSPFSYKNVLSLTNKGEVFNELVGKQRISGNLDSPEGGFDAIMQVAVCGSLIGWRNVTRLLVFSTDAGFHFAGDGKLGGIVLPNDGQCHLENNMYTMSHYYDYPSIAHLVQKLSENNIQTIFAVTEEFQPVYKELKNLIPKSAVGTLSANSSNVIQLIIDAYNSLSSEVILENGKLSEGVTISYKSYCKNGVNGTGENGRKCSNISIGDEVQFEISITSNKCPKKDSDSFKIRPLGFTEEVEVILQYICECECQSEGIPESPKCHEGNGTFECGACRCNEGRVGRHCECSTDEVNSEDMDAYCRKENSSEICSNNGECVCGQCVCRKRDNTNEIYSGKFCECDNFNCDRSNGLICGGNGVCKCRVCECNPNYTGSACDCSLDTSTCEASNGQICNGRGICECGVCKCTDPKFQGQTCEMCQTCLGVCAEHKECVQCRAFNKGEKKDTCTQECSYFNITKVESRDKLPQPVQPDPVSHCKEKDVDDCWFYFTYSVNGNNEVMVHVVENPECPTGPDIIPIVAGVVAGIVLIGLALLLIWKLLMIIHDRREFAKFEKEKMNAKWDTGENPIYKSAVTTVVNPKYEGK

The test concerns the target T1, α4β1 integrin (Jurkat T-cell adhesion to IL-1 stimulated endothelial cell monolayers) (Homo sapiens, UniProt P05556+P13612).
T1 construct: a T-cell line, Jurkat, known to express the α4β1 integrin; host or cells: Jurkat T-cell line
Description: Jurkat-endothelial cell adhesion assay (Jurkat EC). The format is cell-based. The settings on record: Jurkat cells on IL-1 stimulated human umbilical vein endothelial cells; read-out: JK/EC (Jurkat EC Assay IC50 value range). The method, then:
Jurkat-endothelial Cell Adhesion Assay:
The following assay established the activity of the present compounds in inhibiting β1-mediated cell adhesion in a representative in vitro system. This assay measures the adhesive interactions of a T-cell line, Jurkat, known to express the α4β1 integrin, to endothelial monolayers in the presence of test compounds. The test compounds were added in increasing concentrations to T-cells and then the T-cell compound mixture was added to IL-1 stimulated endothelial cell monolayers. The plates were incubated, washed and the percentage of attached cells was quantitated.
Human umbilical vein endothelial cells were purchased from Clonetics (San Diego, Calif.) at passage number 2. The cells were grown on 0.5% porcine skin gelatin pre-coated flasks (Sigma, St. Louis Mo.) in EGM-UV media (Clonetics, San Diego, Calif.) supplemented with 10% fetal bovine serum. Cells are refed every 2-3 days reaching confluence by day 4 to 6. […] The endothelial cells are not used following passage 6.
The T-cell line Jurkat was obtained from American Type Tissue Culture Collection (Rockville, Md.) and the cells were cultured in RPMI containing 10% fetal calf serum. The cells were washed twice in Hank's Balanced Salt Solution (HBSS) and resuspended in Dulbecco's Minimal Eagle's Media (DMEM) containing 2.5 mg/ml Human Serum Albumin (HSA). Jurkat cells (1×10^6 cells/ml) were stained with 10 ng/ml BCECF-AM (Molecular Probes, Eugene, Oreg.)) in HBSS without phenol red. The cells were loaded with BCECF for 60 minutes in the dark at 370C, washed 2 times, and resuspended in DMEM-HSA solution.
Confluent endothelial monolayers, grown in 96-well tissue culture plates, were stimulated for 4 hr. at 37° C. with 0.1 ng/ml (˜50 U/ml) recombinant IL-1 (Amgen, Thousand Oaks, Calif.). Following this incubation, the monolayers were washed twice with HBSS and 0.1 ml of DMEM−HSA solution was added. Jurkat cells (5×10^5 cells) were combined with the appropriate concentration of the test compound and 0.1 ml of the Jurkat cell-compound mixture was added to the endothelial cell monolayers. Generally, 100, 20, 5 and 1.25 μM compound concentrations were tested. […] The plates were placed on ice for 5 minutes to allow for Jurkat cell settling and the plates were incubated at 37° C. for 20 minutes. Following this incubation, the monolayers were washed twice with PBS containing 1 mM calcium chloride and 1 mM magnesium chloride and the plates were read using a Millipore Cytofluor 2300 (Marlboro, Mass.). Fluorescence in each well was measured as Arbitrary Fluorescence Units and percent adhesion in the absence of compound was adjusted to 100% and the % adhesion in the presence of compound was calculated. Monolayers were also fixed in 3% paraformaldehyde and evaluated microscopically to verify the adhesion. This procedure is a modification of a previously published method (Cardarelli et al., J. Biol. Chem. 269:18668-18673 (1994)).
As for `CCOC(=O)N1CSC[C@@H]1C(=O)N[C@@H](Cc1ccc(OCc2c(Cl)cccc2Cl)cc1)C(N)=O` (relative stereo) [Example 90, [S-(R*,R*)]-4-[[[1-[[4-[(2,6-Dichlorophenyl)methoxy]phenyl]methyl]-2-amino-2-oxoethyl]amino]carbonyl]-3-thiazolidinecarboxylic Acid 3-Ethyl Ester], the IC50 was no less than 1000 nM.
The figure for `O=C(C[C@H]1CC[C@@H](C(=O)O)N1Cc1ccccc1)N[C@@H](Cc1ccc(OCc2c(Cl)cccc2Cl)cc1)C(=O)O` [Example 94, (5R)-5-[2-[[(1S)-1-Carboxy-2-[4-[(2,6-dichlorophenyl)methoxy]phenyl]ethyl]amino]-2-oxoethyl]-1-(phenylmethyl)-L-proline] is no less than 1000 nM; for `O=C(C[C@@H]1CC[C@H](C(=O)O)N1Cc1ccccc1)N[C@@H](Cc1ccc(OCc2c(Cl)cccc2Cl)cc1)C(=O)O` [Example 95, (5S)-5-[2-[[(1S)-1-Carboxy-2-[4-[(2,6-dichlorophenyl)methoxy]phenyl]ethyl]amino]-2-oxoethyl]-1-(phenylmethyl)-D-proline] it is no less than 1000 nM.
The figure for `COC(=O)CCC1(CCC(=O)N[C@@H](Cc2ccc(NC(=O)c3c(Cl)cccc3Cl)cc2)C(=O)OC)CCC(=O)N1C` (stereo partly drawn) [Example 110, 2-[3-[[(1S)-1-[[4-[(2,6-Dichlorobenzoyl)amino]phenyl]methyl]-2-methoxy-2-oxoethyl]amino]-3-oxopropyl]-1-methyl-5-oxo-2-pyrrolidinepropanoic Acid Methyl Ester] is no less than 1000 nM; for `COC(=O)CCC1(CCC(=O)N[C@@H](Cc2ccc(OCc3c(Cl)cccc3Cl)cc2)C(=O)OC)CCC(=O)N1` (stereo partly drawn) [Example 112, 2-[3-[[(1S)-1-[[4-[(2,6-Dichlorophenyl)methoxy]phenyl]methyl]-2-methoxy-2-oxoethyl]amino]-3-oxopropyl]-5-oxo-2-pyrrolidinepropanoic Acid Methyl Ester] it is no less than 1000 nM.
The same measure for `COC(=O)[C@H](Cc1ccc(NC(=O)c2c(Cl)cccc2Cl)cc1)NC(=O)C1CCCCN1C(=O)CCC(=O)O` (stereo partly drawn) [Example 163, 2-[[[(1S)-1-[[4-[(2,6-Dichlorobenzoyl)amino]phenyl]methyl]-2-methoxy-2-oxoethyl]amino]carbonyl]-γ-oxo-1-piperidinebutanoic Acid]: no less than 1000 nM; for `COC(=O)[C@H](Cc1ccc(NC(=O)c2c(Cl)cccc2Cl)cc1)NC(=O)C1CCCCN1C(=O)CC1(CC(=O)O)CCCC1` (some centres unmarked) [Example 164]: no less than 1000 nM.
In the case of `COC(=O)[C@H](Cc1ccc(NC(=O)c2c(Cl)cccc2Cl)cc1)NC(=O)C1CCCCN1C(=O)CC(C)(C)CC(=O)O` (some centres unmarked) [Example 165], the IC50 is no more than 250 nM.
For `COC(=O)[C@H](Cc1ccc(NC(=O)c2c(Cl)cccc2Cl)cc1)NC(=O)C1CCCCN1C(=O)/C=C\C(=O)O` (some centres unmarked) [Example 166], the IC50 was no less than 1000 nM.
The figure for `O=C(O)CC1(CC(=O)N2CCCCC2C(=O)N[C@@H](Cc2ccc(NC(=O)c3c(Cl)cccc3Cl)cc2)C(=O)O)CCCC1` (some centres unmarked) [Example 168] is no less than 1000 nM.
The figure for `CC(C)(CC(=O)O)CC(=O)N1CCCCC1C(=O)N[C@@H](Cc1ccc(NC(=O)c2c(Cl)cccc2Cl)cc1)C(=O)O` (some centres unmarked) [Example 169] is no less than 1000 nM; for `O=C(O)/C=C\C(=O)N1CCCCC1C(=O)N[C@@H](Cc1ccc(NC(=O)c2c(Cl)cccc2Cl)cc1)C(=O)O` (some centres unmarked) [Example 170] it is no less than 1000 nM; for `O=C(O)CCC(=O)N1CCCC(C(=O)N[C@@H](Cc2ccc(NC(=O)c3c(Cl)cccc3Cl)cc2)C(=O)O)C1` (stereo partly drawn) [Example 174, 3-[[[(1S)-1-Carboxy-2-[4-[(2,6-dichlorobenzoyl)amino]phenyl]ethyl]amino]carbonyl]-γ-oxo-1-piperidinebutanoic Acid] it is 250 to 1000 nM.
For the molecule `O=C(O)c1ccc(NC(=O)N2CCC(C(=O)N[C@@H](Cc3ccc(NC(=O)c4c(Cl)cccc4Cl)cc3)C(=O)O)CC2)cc1` [Example 175, N-[[1-[[(4-Carboxyphenyl)amino]carbonyl]-4-piperidinyl]carbonyl]-4-[(2,6-dichlorobenzoyl)amino]-L-phenylalanine], the IC50 is no less than 1000 nM.
